Experimental findings from ChEMBL document CHEMBL3751809, “Symmetric 4,4'-(piperidin-4-ylidenemethylene)bisphenol derivatives as novel tunable estrogen receptor (ER) modulators” (Bioorg Med Chem, 2016) are described below.

Each structure is given as a SMILES string. Calls of active or inactive are those of the source. The rule behind the calls is not given here.

Assay [1] deals with T1, Estrogen receptor (Homo sapiens) (UniProt P03372).
T1 sequence (whole entry): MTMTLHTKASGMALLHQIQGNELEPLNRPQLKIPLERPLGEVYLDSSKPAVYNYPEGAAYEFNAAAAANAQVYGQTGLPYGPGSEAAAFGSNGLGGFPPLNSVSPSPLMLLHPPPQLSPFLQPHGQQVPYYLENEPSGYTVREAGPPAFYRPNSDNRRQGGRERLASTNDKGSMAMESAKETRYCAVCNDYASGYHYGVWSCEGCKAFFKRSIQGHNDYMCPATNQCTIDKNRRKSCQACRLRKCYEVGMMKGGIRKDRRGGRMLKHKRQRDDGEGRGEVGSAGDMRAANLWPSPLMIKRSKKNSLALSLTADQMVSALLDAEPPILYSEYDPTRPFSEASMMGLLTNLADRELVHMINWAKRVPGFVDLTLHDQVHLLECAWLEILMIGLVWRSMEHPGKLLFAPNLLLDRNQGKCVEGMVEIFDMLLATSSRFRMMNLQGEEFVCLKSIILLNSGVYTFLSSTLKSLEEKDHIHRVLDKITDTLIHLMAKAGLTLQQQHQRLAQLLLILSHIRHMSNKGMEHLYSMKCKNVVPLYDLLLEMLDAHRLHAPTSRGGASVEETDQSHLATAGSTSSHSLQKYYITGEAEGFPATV
Put plainly: Displacement of [6,7-3H]17beta-estradiol from recombinant human ERalpha ligand binding domain at 0.4 to 4 uM incubated for 16 hrs by scintillation counting analysis.

Assay [2] concerns the target T1, Estrogen receptor (Homo sapiens). Put plainly: Displacement of [6,7-3H]17beta-estradiol from recombinant human ERalpha ligand binding domain incubated for 16 hrs by scintillation counting analysis.
The target is the same in assay [3]. Put plainly: Antagonist activity at ERalpha in human MCF7 cells assessed as inhibition of 17beta-estradiol-mediated cell proliferation incubated for 5 days by WST-8 assay. Format: cell-based.
Assay [4] has the same target. Put plainly: Agonist activity at ERalpha in human MCF7 cells assessed as induction of cell proliferation incubated for 5 days by WST-8 assay. Format: cell-based.

Consider `CN1CCC(=C(c2ccc(O)cc2)c2ccc(O)cc2)CC1`, for which the inhibition entry in assay [1] was “inactive”.
As to `CC(=O)N1CCC(=C(c2ccc(O)cc2)c2ccc(O)cc2)CC1`, in assay [1], the inhibition entry was “inactive”.
Same read-out and setting: with `Oc1ccc(C(=C2CCNCC2)c2ccc(O)cc2)cc1` the entry was “inactive”.
For the compound `CCOC(=O)N1CCC(=C(c2ccc(O)cc2)c2ccc(O)cc2)CC1`, in assay [2], the inhibition result was “Dose-dependent effect”.
For `CC(=O)N1C(C)(C)CC(=C(c2ccc(O)cc2)c2ccc(O)cc2)CC1(C)C`, in assay [3], the inhibition entry is “inactive”. The Activity result in assay [4] was “Dose-dependent effect”. In addition, in assay [1], the inhibition result was “Active”.
In the case of `CC1(C)CC(=C(c2ccc(O)cc2)c2ccc(O)cc2)CC(C)(C)N1`, the inhibition result in assay [1] was “Active”.
